Consider three compounds from US10273208B2, “Screening methods for the binding affinity of chemical entities to biological molecules and NEDD4-1 inhibitors identified by the screening methods” (Northwestern University, priority 2014, dated 2019).

Entries after “also recorded” stand apart in the source; their conditions may differ.

In experiment [1] the target is T1, NEDD4-1 HECT domain (Homo sapiens, UniProt P46934).
T1 construct: to elute NEDD4-1 HECT domain (50 mM HEPES, 150 mM NaCl, 0.1 mM EDTA 1 mM DTT); GST (N, cleaved yes); made in house; host or cells: E. coli BL21
T1 sequence (P46934 with tags, fused parts or gaps): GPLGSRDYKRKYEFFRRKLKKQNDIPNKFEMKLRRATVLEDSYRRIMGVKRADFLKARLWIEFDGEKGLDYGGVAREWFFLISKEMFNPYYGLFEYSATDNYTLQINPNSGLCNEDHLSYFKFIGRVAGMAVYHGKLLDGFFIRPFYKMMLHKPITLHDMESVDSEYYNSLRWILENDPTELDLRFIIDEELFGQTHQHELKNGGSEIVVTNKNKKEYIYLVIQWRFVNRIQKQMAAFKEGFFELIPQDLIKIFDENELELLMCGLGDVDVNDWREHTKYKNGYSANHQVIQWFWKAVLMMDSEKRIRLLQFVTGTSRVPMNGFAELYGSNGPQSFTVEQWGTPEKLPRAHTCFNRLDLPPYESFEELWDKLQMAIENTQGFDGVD
The experiment can be described thus: Covalent labeling of NEDD4-1 HECT domain (gel filtration, whole protein ESI-MS). Type of experiment: binding. As to the method:
10 μM of NEDD4-1 HECT domain in 50 mM HEPES 150 mM NaCl 0.1 mM EDTA 1 mM DTT pH 7.5 was treated with a mixture of ten fragments (from 10 mM each DMSO stock solution mixtures; final concentrations: 100 μM of each fragment, and 1% DMSO). Fragment structures and mixture compositions were the same as reported previously. The reaction mixture was incubated for 4 h at 23° C. before being passed through Zeba gel filtration columns (Thermo, 7K MWCO) to remove unreacted fragments. The protein solution was then immediately analyzed by whole protein LC/ESI-MS.
Accurate-mass data were obtained on an Agilent 6210A LC-TOF mass spectrometer in positive ion mode using electrospray ionization. Samples were chromatographed on the LC-TOF instrument using a Poroshell 120 EC-C18 HPLC column (2.1*50 mm, 2.7 micron), an Agilent Series 1200 HPLC binary pump, and an Agilent Series 1200 autoinjector. The HPLC column was held at 45° C. and the autosampler was held at 8° C. Mobile Phase A was a solution of 0.1% formic acid in water:acetonitrile (19:1). Mobile Phase B was a solution of 0.1% formic acid in acetonitrile. The flow rate was set to 250 μL/min. The gradient used was 0% B for 2 minutes, ramping linearly to 90% B from 2 minutes to 5 minutes, holding at 90% B from 5 minutes to 7 minutes, and then returning to 0% B at 7.1 minutes. The column was allowed to equilibrate for 2.7 minutes before the next injection was initiated. The eluent from the column was diverted to waste for the first 2 minutes. The spectra were acquired from 301 to 3200 daltons using a gas temperature of 340° C., a gas flow of 7 liters/min, and the nebulizer gas at 35 psi. The following voltages were used: capillary 4200 V, fragmentor 230V, skimmer 64V, and octapole RF peak 250V. Spectra were acquired at a rate of 1 spectra/sec. The data was processed using MassHunter software version B.02.00. Maximum entropy deconvolutions were performed with a Mass Step of 1, S/N Threshold of 30, Average Mass at 90% of Peak Height, and 5 Charge States Minimum.
10 μM of NEDD4-1 HECT domain in 50 mM HEPES 150 mM NaCl 0.1 mM EDTA 1 mM DTT pH 7.5 was treated with 1 mM of inhibitor 1 or 2 (from 100 mM DMSO stock solution; final concentrations: 1 mM of inhibitor, 1% DMSO, and 0.2% CHAPS to solubilize the inhibitors at 1 mM). The reaction mixture was incubated for 4 h at 23° C. before being passed through Zeba gel filtration columns (Thermo, 7K MWCO) to remove unreacted inhibitor. The protein solution was then immediately used for crystallization or enzymatic assay.

In experiment [2] the target is T1, NEDD4-1 HECT domain. The experiment can be described thus: In vitro ubiquitination assays. Type of experiment: biochemical. As to conditions: NEDD4-1 HECT pretreated with 1 mM compound for 3 h, quenched after 5 min. As to the method:
FIG. 15A, FIG. 15B and FIG. 15C. (FIG. 15A) Enzymatic assay with compounds 1, 2, and 4. NEDD4-1 HECT domain was pretreated with 1% DMSO (lane 1), or 1 mM of compounds 1 (lane 2), 2 (lane 3), or 4 (lane 4) for 3 h before beginning the assay. The reaction mixtures were quenched after 5 min, and polyubiquitin chains were detected by Western blot with anti-ubiquitin antibody. (FIG. 15B) Cartoon depiction of the crystal structure of NEDD4-1:1 with key side chains and the inhibitor shown as spheres. (FIG. 15C) Close-up view of the inhibitor-binding site with the key side chains depicted as sticks and colored by atom type. The 2FO-FC electron density map (mesh, contoured at 1.0 σ) is presented for Cys^627 and 1.
FIG. 16A, FIG. 16B, FIG. 16C and FIG. 16D. (FIG. 16A) and (FIG. 16B) Compound 6 disrupts the NEDD4-1:Ub interaction as shown by a fluorescence polarization assay. Mean±s.e.m., n=3. (FIG. 16C) Compound 6 inhibits the ability of NEDD4-1 to polyubiquitinate the Wbp2-C-K222 protein substrate. NEDD4-1 was pretreated with 1% DMSO (lane 1), or 100 μM of compound 6 (lane 2) or compound 4 (lane 3) for 1.5 h before beginning the assay. Reaction mixtures were quenched at the indicated times and the amount of ubiquitinated Wbp2-C-K222 was determined using in-gel fluorescence. (FIG. 16D) Quantification of polyubiquitin chains in FIG. 16B. Mean±s.e.m., n=2. […]

Experiment [3] concerns the target T2, NEDD4-1 HECT:ubiquitin-fluorescein interaction (Homo sapiens, UniProt P46934).
T2 construct: to elute NEDD4-1 HECT domain (50 mM HEPES, 150 mM NaCl, 0.1 mM EDTA 1 mM DTT); GST (N, cleaved yes); made in house; host or cells: E. coli BL21
T2 sequence (P46934 with tags, fused parts or gaps): T1 sequence (P46934 with tags, fused parts or gaps)
The experiment can be described thus: Fluorescence polarization assay of NEDD4-1:Ub binding. The conditions noted are these: NEDD4-1 HECT 7.98 μM, ubiquitin-fluorescein 50 nM, 1 h. As to the method: NEDD4-1 HECT (7.98 μM) and ubiquitin-fluorescein (50 nM, Lifesensors) in 50 mM HEPES pH 7.5 150 mM NaCl 0.1 mM EDTA were treated with DMSO or varying concentrations of inhibitor in 1% DMSO in black 96 well plates. Changes in fluorescence polarization were monitored over 1 h with a Biotek Synergy 4 plate reader. Slopes of ln(polarization) vs. time were plotted with GraphPad Prism and used to determine the pseudo-first order rate contstant kobs for a given concentration of inhibitor. The values of kinact/KI for each inhibitor were then determined by fitting the kobs vs. [inhibitor] plot to the equation kobs=kinact*[inhibitor]/([inhibitor]+KI). All reactions were performed in triplicate and plotted as mean±s.e.m.

The target in experiment [4] is T3, NEDD4-1 (~120 kDa band) in TC71 Ewing's sarcoma cells (Homo sapiens, UniProt P46934).
T3 sequence (P46934 1-900 isoform P46934-4): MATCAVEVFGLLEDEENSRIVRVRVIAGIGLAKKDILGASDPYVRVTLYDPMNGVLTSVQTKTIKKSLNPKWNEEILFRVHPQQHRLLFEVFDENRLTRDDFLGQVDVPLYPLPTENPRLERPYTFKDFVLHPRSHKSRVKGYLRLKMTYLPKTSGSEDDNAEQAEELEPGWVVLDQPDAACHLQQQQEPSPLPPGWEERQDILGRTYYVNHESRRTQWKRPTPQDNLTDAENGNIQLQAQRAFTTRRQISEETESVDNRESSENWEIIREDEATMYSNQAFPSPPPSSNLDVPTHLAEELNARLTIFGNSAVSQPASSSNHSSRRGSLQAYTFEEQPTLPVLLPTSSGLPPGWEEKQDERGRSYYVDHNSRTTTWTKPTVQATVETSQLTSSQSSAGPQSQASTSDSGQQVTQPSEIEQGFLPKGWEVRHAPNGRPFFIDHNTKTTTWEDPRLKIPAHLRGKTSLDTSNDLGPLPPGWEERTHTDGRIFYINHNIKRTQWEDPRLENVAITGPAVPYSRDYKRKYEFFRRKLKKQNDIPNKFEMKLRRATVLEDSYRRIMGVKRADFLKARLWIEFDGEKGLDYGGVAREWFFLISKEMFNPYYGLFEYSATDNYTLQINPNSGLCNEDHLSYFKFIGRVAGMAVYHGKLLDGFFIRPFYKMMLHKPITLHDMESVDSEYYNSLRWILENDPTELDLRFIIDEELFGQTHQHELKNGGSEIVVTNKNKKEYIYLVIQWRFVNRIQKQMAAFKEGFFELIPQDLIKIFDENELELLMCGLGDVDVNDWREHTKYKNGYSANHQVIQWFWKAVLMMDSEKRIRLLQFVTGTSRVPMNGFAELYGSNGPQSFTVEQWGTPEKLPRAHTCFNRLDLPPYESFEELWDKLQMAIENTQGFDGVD
The experiment can be described thus: Cell-based selectivity studies with alkyne probe 15, click reaction, in-gel fluorescence. As to conditions: pretreatment 1 h, then 2 μM probe 15.
Protocol: We treated TC71 Ewing's sarcoma cells (NEDD4-1 positive),^[6b] with 2 μM of compound 15, followed by lysis, click reaction with rhodamine azide, and in-gel fluorescence.^[15]
TC71 cells were cultured in Iscove's Modified Dulbecco's Medium (IMDM), 20% (v/v) FBS, 4 mM glutamine, and lx ITS (5 μg/mL insulin, 5 μg/mL transferrin, 5 ng/mL selenous acid). Cells were grown to confluence in 6-well plates (9.6 cm^2 per well). The growth medium was aspirated off and replaced with 2 mL serum-free IMDM containing 0.1% DMSO or the indicated concentration of inhibitor in 0.1% DMSO. After 1 h incubation time at 37° C., cells were treated with 0.1% DMSO or 2 μM of probe 15 in 0.1% DMSO for an additional hour. […] Proteins were then resolved by SDS-PAGE 7.5% or 15% acrylamide gels, and subjected to in-gel scanning fluorescence imaging on the Typhoon 9400 at 610 nm excitation. The gel was then stained with Coomassie Brilliant Blue to visualize all proteins. Western blots were performed with anti-NEDD4-1 antibody from Cell Signaling (2740S).

Turning to `COC(=O)/C=C/CNC(=O)c1c(C)n(C)c2ccc(OC)cc12` [Compound 1, Methyl(E)-4-(5-methoxy-1,2-dimethyl-1H-indole-3-carboxamido)but-2-enoate], on NEDD4-1 HECT domain [1] (compound 100 μM, NEDD4-1 10 μM, 4 h), the “labeling of NEDD4-1” value is given as approximately 40%. The “labeling of NEDD4-1 HECT domain (qualitative)” value on NEDD4-1 HECT domain [1] (compound 100 μM, NEDD4-1 HECT 10 μM, 4 h) is given as “monolabel”. The “labeling of NEDD4-1 in the presence of ubiquitin” value on NEDD4-1 HECT domain [1] (compound 100 μM, NEDD4-1 HECT 10 μM, ubiquitin 60 μM, 4 h) was “completely inhibited”. In addition, the “modification of NEDD4-1 HECT domain at 1 mM” value at NEDD4-1 HECT domain [1] (compound 1 mM, 3-4 h) is “complete modification; also recorded: fully labels NEDD4-1 HECT domain after 3 h, with minor non-specific dilabeling”. In addition, the “covalent modification of NEDD4-1 HECT domain in the mixture screen” value at NEDD4-1 HECT domain [1] (ten mixtures of ten fragments, 100 μM each, 4 h) is “weak covalent modifiers”. The “polyubiquitin chain assembly by NEDD4-1 (anti-ubiquitin Western blot)” value on NEDD4-1 HECT domain [2] was “defective at assembling polyubiquitin chains; also recorded: inhibition of polyubiquitization”.
`COC(=O)/C=C/CNC(=O)c1c(C)n(C2CCCC2)c2ccc(OC)cc12` [Compound 6]: the kinact in experiment [3] is 5.8e-05 s⁻¹. Moreover, in experiment [3] (read-out: K1 (disruption of NEDD4-1:Ub binding)), the KI (inactivation constant) was determined as 29.3 µM.
As for `COC(=O)/C=C/CNC(=O)c1c(C)n(C)c2ccccc12` [Compound 11, Methyl(E)-4-(1,2-dimethyl-1H-indole-3-carboxamido)but-2-enoate], the “effect of pretreatment on probe 15 labeling of the ~120 kDa band (NEDD4-1)” value in experiment [4] is “inactive”.
